Experimental data taken from patent publication US20260184693A1, “INHIBITORS OF SOLUTE CARRIER FAMILY 6A MEMBER 19 (SLC6A19) AND METHODS OF USE THEREOF” (Maze Therapeutics, Inc., priority 2022, published 2026).

Target: T1, human SLC6A19 (Homo sapiens, UniProt Q695T7)
T1 construct: expressed in transfected cells
T1 sequence (Q695T7 1-634): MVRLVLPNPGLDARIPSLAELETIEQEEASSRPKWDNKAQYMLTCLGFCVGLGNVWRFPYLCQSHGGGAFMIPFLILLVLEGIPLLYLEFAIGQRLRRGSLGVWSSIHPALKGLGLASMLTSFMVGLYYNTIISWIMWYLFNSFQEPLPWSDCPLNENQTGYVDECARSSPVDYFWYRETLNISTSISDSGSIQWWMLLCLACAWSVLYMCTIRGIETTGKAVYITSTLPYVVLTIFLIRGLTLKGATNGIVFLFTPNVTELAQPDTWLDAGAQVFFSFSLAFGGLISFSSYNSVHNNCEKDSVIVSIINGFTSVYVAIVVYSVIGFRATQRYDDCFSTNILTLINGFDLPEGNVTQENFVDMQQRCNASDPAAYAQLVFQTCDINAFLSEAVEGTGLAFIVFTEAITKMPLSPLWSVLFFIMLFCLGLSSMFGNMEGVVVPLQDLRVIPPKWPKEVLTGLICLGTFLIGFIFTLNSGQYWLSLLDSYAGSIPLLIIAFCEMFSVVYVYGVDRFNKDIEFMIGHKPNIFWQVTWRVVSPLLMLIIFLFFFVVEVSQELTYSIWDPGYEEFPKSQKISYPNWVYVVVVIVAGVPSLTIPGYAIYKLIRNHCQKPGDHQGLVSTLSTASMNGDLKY
T1 sequence (Q9HBJ8 15-222 partner): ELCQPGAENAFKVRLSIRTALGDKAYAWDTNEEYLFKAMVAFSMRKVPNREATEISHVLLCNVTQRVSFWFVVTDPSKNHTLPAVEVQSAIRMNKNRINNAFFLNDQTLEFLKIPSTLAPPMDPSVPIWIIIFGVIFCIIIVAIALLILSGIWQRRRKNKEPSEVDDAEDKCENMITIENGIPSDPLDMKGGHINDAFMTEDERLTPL
Assay: Example B2: 13C6,15N-isoleucine uptake, RapidFire mass spectrometry, in CHO cells with doxycycline-inducible expression of human SLC6A19 and TMEM27
Assay type: cell-based
Conditions: read-out: SLC6A19_RapidFire Uptake Assay IC50
Procedure, shortened: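 Labelled isoleucine (13C6,15N; 2 mM added) was given 20 min at 37 °C, following a 20-min compound pre-treatment (10-point 2-fold series, duplicate). Cells were doxycycline-induced CHO co-expressing human SLC6A19 and TMEM27. Intracellular label was quantified by RapidFire-MS peak areas against a 13C-leucine standard.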

For `CN(C(=O)NCc1cc2cc(Cl)ccc2[nH]1)[C@@H]1CCCN(C(=O)N2CCC2)C1` [Compound 173, (R)-1-(1-(azetidine-1-carbonyl)piperidin-3-yl)-3-((5-chloro-1H-indol-2-yl)methyl)-1-methylurea], which IC50 is on record?
Its IC50 is 0.314 µM.

How did the IC50 turn out when `CC(=O)N1CCC[C@@H](N(C)C(=O)NCc2cc3cc(C)c(C#N)cc3[nH]2)C1` [Compound 174, (R)-1-(1-acetylpiperidin-3-yl)-3-((6-cyano-5-methyl-1H-indol-2-yl)methyl)-1-methylurea] was run?
Its IC50 is 2.79 µM.

`CC(=O)N1CCC[C@@H](N(C)C(=O)NCc2cc3cc(C)cc(CO)c3[nH]2)C1` [Compound 175, (R)-1-(1-acetylpiperidin-3-yl)-3-((7-(hydroxymethyl)-5-methyl-1H-indol-2-yl)methyl)-1-methylurea] was tested. Which IC50 did it give?
The IC50 was 20.9 µM.

With `CC(=O)N1CCC[C@@H](N(C)C(=O)NCc2[nH]c3ccc(Cl)cc3c2Cl)C1` [Compound 176, (R)-1-(1-acetylpiperidin-3-yl)-3-((3,5-dichloro-1H-indol-2-yl)methyl)-1-methylurea] as the molecule, how does the IC50 read?
The IC50 was 0.0307 µM.

`Cc1cc(N2CCC[C@@H](N(C)C(=O)NCc3cc4cc(Cl)ccc4[nH]3)C2)no1` [Compound 177, (R)-3-((5-chloro-1H-indol-2-yl)methyl)-1-methyl-1-(1-(5-methylisoxazol-3-yl)piperidin-3-yl)urea] was tested. Which IC50 did it give?
The IC50 was 0.122 µM.

For `CNc1cc(Cl)cc2cc(CNC(=O)N(C)[C@@H]3CCCN(C(C)=O)C3)[nH]c12` [Compound 178, (R)-1-(1-acetylpiperidin-3-yl)-3-((5-chloro-7-(methylamino)-1H-indol-2-yl)methyl)-1-methylurea], which IC50 is on record?
Its IC50 is 1.57 µM.

How did the IC50 turn out when `COc1cc2[nH]c(CNC(=O)N(C)[C@@H]3CCCN(C(C)=O)C3)cc2cc1C` [Compound 179, (R)-1-(1-acetylpiperidin-3-yl)-3-((6-methoxy-5-methyl-1H-indol-2-yl)methyl)-1-methylurea] was run?
Its IC50 is 1.21 µM.

With `CN(C(=O)NCc1cc2cc(Cl)ccc2[nH]1)[C@@H]1CCCN(C(=O)C(C)(C)O)C1` [Compound 180, (R)-3-((5-chloro-1H-indol-2-yl)methyl)-1-(1-(2-hydroxy-2-methylpropanoyl)piperidin-3-yl)-1-methylurea] as the molecule, how does the IC50 read?
The IC50 was 2.79 µM.

With `CN(C(=O)NCc1cc2cc(Cl)ccc2[nH]1)[C@@H]1CCCN(C(=O)N2CCCC2)C1` [Compound 181, (R)-3-((5-chloro-1H-indol-2-yl)methyl)-1-methyl-1-(1-(pyrrolidine-1-carbonyl)piperidin-3-yl)urea] as the molecule, how does the IC50 read?
The IC50 was 0.795 µM.

How did the IC50 turn out when `CC(=O)N1CCC[C@@H](N(C)C(=O)NCc2cc3cc(Cl)c(C#N)cc3[nH]2)C1` [Compound 182, (R)-1-(1-acetylpiperidin-3-yl)-3-((5-chloro-6-cyano-1H-indol-2-yl)methyl)-1-methylurea] was run?
The IC50 was 2.93 µM.

For `C[C@H](O)C(=O)N1CCC[C@@H](N(C)C(=O)NCc2cc3cc(Cl)ccc3[nH]2)C1` [Compound 183, 3-((5-chloro-1H-indol-2-yl)methyl)-1-((R)-1-((S)-2-hydroxypropanoyl)piperidin-3-yl)-1-methylurea], which IC50 is on record?
Its IC50 is 0.852 µM.

How did the IC50 turn out when `CC(=O)N1CCC[C@@H](N(C)C(=O)NCc2cc3[nH]ccc3cc2F)C1` [Compound 184, (R)-1-(1-acetylpiperidin-3-yl)-3-((5-fluoro-1H-indol-6-yl)methyl)-1-methylurea] was run?
The IC50 was 3.97 µM.

`CC(=O)N1CCC(C(=O)N2CCC[C@@H](N(C)C(=O)NCc3cc4cc(Cl)ccc4[nH]3)C2)C1` (stereo partly drawn) [Compound 185, 1-((3R)-1-(1-acetylpyrrolidine-3-carbonyl)piperidin-3-yl)-3-((5-chloro-1H-indol-2-yl)methyl)-1-methylurea] was tested. Which IC50 did it give?
The IC50 was 4.4 µM.

With `C[C@@H](O)C(=O)N1CCC[C@@H](N(C)C(=O)NCc2cc3cc(Cl)ccc3[nH]2)C1` [Compound 186, 3-((5-chloro-1H-indol-2-yl)methyl)-1-((R)-1-((R)-2-hydroxypropanoyl)piperidin-3-yl)-1-methylurea] as the molecule, how does the IC50 read?
The IC50 was 5.6 µM.

Which IC50 does the source give for `CC(=O)N1CCC[C@@H](N(C)C(=O)NCc2ccc3c(C)c[nH]c3c2)C1` [Compound 223, (R)-1-(1-acetylpiperidin-3-yl)-1-methyl-3-((3-methyl-1H-indol-6-yl)methyl)urea] here?
The IC50 was 4.67 µM.
